# According to US6008189A, “Intravaginal preparation containing physiologically active peptide” (Teikoku Seiyaku Kabushiki Kaisha, priority 1993, dated 1999):
# Key:
# Format in all cases: in vivo, rat
# [1] = tested on: Ovariectomized female Wistar rats; experiment: Experiment 2: serum calcium reduction, effect of various suppository bases; settings: S-970 and citric acid, 20 μg intravaginal
# Experimental: (§1) An intravaginal suppository was administered into the rat's vagina, and the blood was collected periodically (2, 4 and 6 hours after administration of the test preparation).
# (§2) The serum was separated, and the calcium level in the serum was determined by using a kit for determination of calcium (Calcium C Test Wako; manufactured by Wako Pure Chemical Industries, Ltd.) (n=3).
# (§3) In the same manner as in Experiment 1, each intravaginal suppository was administered to the rat's vagina, and the blood was collected periodically (2, 4 and 6 hours after administration of intravaginal suppository), and the calcium level in the serum thereof was determined (n=4).
# [2] = tested on: Ovariectomized female Wistar rats; experiment: Experiment 3: serum calcium reduction, effect of various sucrose fatty acid esters; settings: with citric acid, 20 μg intravaginal
# Experimental: as §1, §2
# In the same manner, there were prepared various sucrose fatty acid esters having the same HLB value but being combined with a different fatty acid (Table B), and four kinds of intravaginal suppositories for rats were prepared by using each 100 mg of sucrose fatty acid ester.
# as §3
# [3] = tested on: Ovariectomized female Wistar rats; experiment: Experiment 6: serum calcium reduction, effect of organic acid concentration; settings: pH 3.5, S-970 100 mg per 5.00 g, 20 μg intravaginal
# Experimental: as §1, §2
# (§4) In the same manner as in Experiment 1, each intravaginal suppository was administered to the rat's vagina, and the blood was collected periodically (2, 4 and 6 hours after administration of intravaginal suppository), and the calcium level in the serum thereof was determined (n=3).
# [4] = tested on: Ovariectomized female Wistar rats; experiment: Experiment 4: serum calcium reduction, effect of sucrose fatty acid ester concentration; settings: sucrose fatty acid ester (S-970) 2 w/w % of suppository; citric acid 100 mg per 5.00 g; 20 μg intravaginal; 2 hr
# Experimental: as §1, §2
# Human calcitonin (2 mg) was precisely measured, and thereto were added citric acid (100 mg) and Ryoto-Sugar Ester S-970 (50 mg, 100 mg or 400 mg), and the mixture was mixed well.
# In the same manner as in Experiment 1, each intravaginal suppository was administered to the rat's vagina, and the blood was collected periodically (2 and 4 hours after administration of intravaginal suppository), and the calcium level in the serum thereof was determined (n=3).
# [5] = tested on: Ovariectomized female Wistar rats; experiment: Experiment 7: serum calcium reduction, effect of pH of the solution in the suppository; settings: citric acid and S-970, 20 μg intravaginal
# Experimental: as §1, §2, §4
# [6] = tested on: Ovariectomized female Wistar rats; experiment: Experiment 5: serum calcium reduction, sucrose fatty acid ester with various organic acids; settings: 20 μg intravaginal
# Experimental: as §1, §2
# In the same manner as in Experiment 1, each intravaginal suppository was administered to the rat's vagina, and the blood was collected periodically (2, 4 and 6 hours after administration of intravaginal suppository), and the calcium level in the serum thereof was determined (n=5).
# [7] = tested on: Ovariectomized female Wistar rats; experiment: Experiment 1: serum calcium reduction after intravaginal suppository, sucrose fatty acid ester plus citric acid versus each alone; settings: 20 μg intravaginal
# Experimental: To the mixture was added a commercially available base for intravaginal preparation; Witepsol S-55 (which is prepared from Witepsol E-85 so as to give a final intravaginal suppository having a melting point of 36.5° C., manufactured by Hils Co., Ltd., former Diamit Novel Co., Ltd) which was homogenized by previously warming and stirring thereof so as to give an intravaginal suppository with the total weight of 5.00 g. […] The mixture was poured into a tube (inside diameter: about 3 mm) made of teflon at about 40° C., cooled to solidify, and taken out from the tube. The solidified mixture was cut into pieces (weight: 50 mg) to give intravaginal suppositories for rats containing human calcitonin (20 μg/each). There were also obtained two kinds of intravaginal suppositories prepared by adding citric acid (50 mg) only, and prepared by adding a sucrose fatty acid ester (100 mg) only, likewise. There were obtained intravaginal suppositories containing only human calcitonin without citric acid nor a sucrose fatty acid ester, likewise, which are used as control.
# as §1, §2
substance,measurement,setting,value
Human calcitonin,Reduction rate (%) of calcium level in the serum,"[1]; base Cacao butter, 6 hr",8.3%
same,Reduction rate (%) of calcium level in the serum,"[1]; base Witepsol S-55, 6 hr",13.0%
same,Reduction rate (%) of calcium level in the serum,"[1]; base Witepsol W-35, 2 hr",6.6%
same,Reduction rate (%) of calcium level in the serum,"[2]; Ryoto-Sugar Ester (S-570), HLB 5, stearic acid, 6 hr",12.0%
same,Reduction rate (%) of calcium level in the serum,"[2]; Ryoto-Sugar Ester L-595 + L-1695 3:2, HLB 9, lauric acid, 2 hr",11.0%
same,Reduction rate (%) of calcium level in the serum,"[2]; Ryoto-Sugar Ester L-595 + L-1695 3:2, HLB 9, lauric acid, 6 hr",9.7%
same,Reduction rate (%) of calcium level in the serum,"[2]; Ryoto-Sugar Ester P-070 + P-1670 4:5, HLB 9, palmitic acid, 2 hr",8.2%
same,Reduction rate (%) of calcium level in the serum,"[2]; Ryoto-Sugar Ester S-370 + S-1670 5:6, HLB 9, stearic acid, 2 hr",6.9%
same,Reduction rate (%) of calcium level in the serum,"[2]; Ryoto-Sugar Ester S-970 1:0 (control), HLB 9, stearic acid, 2 hr (Table 4)",6.3%
same,Reduction rate (%) of calcium level in the serum,"[2]; Ryoto-Sugar Ester S-970 1:0 (control), HLB 9, stearic acid, 6 hr (Table 4)",11.0%
same,Reduction rate (%) of calcium level in the serum,"[3]; citric acid 1 w/w % of suppository, 6 hr",9.2%
same,Reduction rate (%) of calcium level in the serum,"[3]; citric acid 2 w/w % of suppository, 6 hr",8.2%
same,Reduction rate (%) of calcium level in the serum,"[3]; citric acid 5 w/w % of suppository, 6 hr",7.5%
same,Reduction rate (%) of calcium level in the serum,"[3]; citric acid 10 w/w % of suppository, 4 hr",19.0%
same,Reduction rate (%) of calcium level in the serum,"[3]; citric acid 10 w/w % of suppository, 6 hr",5.0%
same,Reduction rate (%) of calcium level in the serum,[4],8.0%
same,Reduction rate (%) of calcium level in the serum,"[5]; pH of the solution in suppository 3.0, 2 hr",11.0%
same,Reduction rate (%) of calcium level in the serum,"[5]; pH of the solution in suppository 3.0, 4 hr",22.0%
same,Reduction rate (%) of calcium level in the serum,"[5]; pH of the solution in suppository 3.0, 6 hr",8.7%
same,Reduction rate (%) of calcium level in the serum,"[5]; pH of the solution in suppository 3.5, 2 hr",9.4%
same,Reduction rate (%) of calcium level in the serum,"[5]; pH of the solution in suppository 3.5, 6 hr",8.8%
same,Reduction rate (%) of calcium level in the serum,"[5]; pH of the solution in suppository 4.0, 2 hr",9.4%
same,Reduction rate (%) of calcium level in the serum,"[5]; pH of the solution in suppository 4.5, 2 hr",9.5%
same,Reduction rate (%) of calcium level in the serum,"[5]; pH of the solution in suppository 4.5, 6 hr",9.1%
same,Reduction rate (%) of calcium level in the serum,"[5]; pH of the solution in suppository 5.0, 6 hr",2.7%
same,Reduction rate (%) of calcium level in the serum,"[5]; pH of the solution in suppository 5.5, 2 hr",8.1%
same,Reduction rate (%) of calcium level in the serum,"[5]; pH of the solution in suppository 5.5, 6 hr",4.3%
same,Reduction rate (%) of calcium level in the serum,"[6]; organic acid Citric acid (pH 4) with Ryoto-Sugar Ester R-970, 6 hr",8.4%
same,Reduction rate (%) of calcium level in the serum,"[6]; organic acid Lactic acid (pH 4) with Ryoto-Sugar Ester R-970, 2 hr",17.0%
same,Reduction rate (%) of calcium level in the serum,"[6]; organic acid Lactic acid (pH 4) with Ryoto-Sugar Ester R-970, 6 hr",5.4%
same,Reduction rate (%) of calcium level in the serum,"[6]; organic acid Malic acid (pH 4) with Ryoto-Sugar Ester R-970, 4 hr",13.0%
same,Reduction rate (%) of calcium level in the serum,"[6]; organic acid Malic acid (pH 4) with Ryoto-Sugar Ester R-970, 6 hr",7.0%
same,Reduction rate (%) of calcium level in the serum,"[6]; organic acid Tartaric acid (pH 4) with Ryoto-Sugar Ester R-970, 4 hr",8.0%
same,Reduction rate (%) of calcium level in the serum,"[6]; organic acid Tartaric acid (pH 4) with Ryoto-Sugar Ester R-970, 6 hr",3.4%
same,Reduction rate (%) of calcium level in the serum,"[7]; Control: suppository with human calcitonin only, no citric acid nor ester, 2 hr",2.6%
same,Reduction rate (%) of calcium level in the serum,"[7]; Control: suppository with human calcitonin only, no citric acid nor ester, 4 hr",2.2%
same,Reduction rate (%) of calcium level in the serum,"[7]; Control: suppository with human calcitonin only, no citric acid nor ester, 6 hr",3.8%
same,Reduction rate (%) of calcium level in the serum,"[7]; suppository with citric acid only, 2 hr",9.5%
same,Reduction rate (%) of calcium level in the serum,"[7]; suppository with citric acid only, 4 hr",8.0%
same,Reduction rate (%) of calcium level in the serum,"[7]; suppository with citric acid only, 6 hr",5.7%
